Laboratory results published in US10675284B2, “Treatment of B-cell malignancies by a combination JAK and PI3K inhibitors” (Incyte Corporation, priority 2014, dated 2020).
Where two headings read alike, the source gives them in different places.

How the values were obtained:
[1] = biological target: human JAK2 (a.a. 828-1132) (Homo sapiens (Human), UniProt O60674); assay: In vitro JAK kinase assay (HTRF), JAK2; type: biochemical; details: IC50 ratio, 1 mM ATP
[2] = biological target: human JAK1 (a.a. 837-1142) (Homo sapiens, UniProt P23458); assay: In vitro JAK kinase assay (HTRF), JAK1; type: biochemical
[3] = system: Pfeiffer cells; assay: Western blot analysis of Pfeiffer cells; type: cell-based, human; details: 24 hours
Protocol: The following materials and methods were used in the Western blot analysis infra. Cells (5 million) were lysed in a 300 μl volume of lysis buffer. Soluble fractions were collected by centrifugation. 25 μl of cell lysate were loaded into Tris-Glycine polyacrylamide gels and subjected to electrophoresis. The proteins were transferred into nitrocellulose membrane and probed with antibodies from Cell Signaling Technology for the following proteins: phospho-Stat3 Y705, phospho-Akt 5473, pim1, pim2, pim3, c-myc, phospho-p70S6K, phosho-S6, phospho-Bad S112 and actin.
IL6 and IL10 promote cell survival through the expression of Pim2, which is dependent on JAK1 activity.
Extracts were analyzed by Western blot for pAKT and pSTAT3.

Sequence of human JAK1 (a.a. 837-1142) (P23458 whole entry, looked up): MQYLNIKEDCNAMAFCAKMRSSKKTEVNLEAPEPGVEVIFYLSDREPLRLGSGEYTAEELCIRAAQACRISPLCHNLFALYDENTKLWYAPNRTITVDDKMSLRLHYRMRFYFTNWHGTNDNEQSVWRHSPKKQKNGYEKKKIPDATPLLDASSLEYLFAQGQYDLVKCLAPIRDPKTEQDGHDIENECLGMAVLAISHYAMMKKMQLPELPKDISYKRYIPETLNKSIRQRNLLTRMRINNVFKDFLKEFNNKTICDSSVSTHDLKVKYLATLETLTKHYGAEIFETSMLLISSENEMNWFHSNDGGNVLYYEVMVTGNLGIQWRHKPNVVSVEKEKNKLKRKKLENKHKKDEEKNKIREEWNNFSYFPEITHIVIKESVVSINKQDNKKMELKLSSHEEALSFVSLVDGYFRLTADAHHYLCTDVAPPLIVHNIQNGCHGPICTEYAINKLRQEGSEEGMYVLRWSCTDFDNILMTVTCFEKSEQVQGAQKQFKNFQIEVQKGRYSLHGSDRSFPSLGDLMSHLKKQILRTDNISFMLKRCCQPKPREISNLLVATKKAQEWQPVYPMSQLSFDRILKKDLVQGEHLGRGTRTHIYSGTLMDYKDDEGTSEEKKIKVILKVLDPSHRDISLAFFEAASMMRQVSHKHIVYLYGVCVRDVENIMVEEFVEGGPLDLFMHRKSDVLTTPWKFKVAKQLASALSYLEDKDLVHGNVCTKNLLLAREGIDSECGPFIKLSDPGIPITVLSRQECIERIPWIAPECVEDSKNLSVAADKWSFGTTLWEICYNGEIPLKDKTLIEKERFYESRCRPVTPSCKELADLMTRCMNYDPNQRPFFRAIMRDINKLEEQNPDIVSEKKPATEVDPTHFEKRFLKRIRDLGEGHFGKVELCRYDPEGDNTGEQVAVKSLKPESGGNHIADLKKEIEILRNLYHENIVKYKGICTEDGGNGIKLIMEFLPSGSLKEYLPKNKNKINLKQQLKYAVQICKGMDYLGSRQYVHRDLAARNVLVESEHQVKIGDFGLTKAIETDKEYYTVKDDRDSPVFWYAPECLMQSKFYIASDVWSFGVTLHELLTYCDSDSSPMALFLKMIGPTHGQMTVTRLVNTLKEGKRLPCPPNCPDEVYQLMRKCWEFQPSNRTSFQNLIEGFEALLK
Sequence of human JAK2 (a.a. 828-1132) (O60674 828-1132): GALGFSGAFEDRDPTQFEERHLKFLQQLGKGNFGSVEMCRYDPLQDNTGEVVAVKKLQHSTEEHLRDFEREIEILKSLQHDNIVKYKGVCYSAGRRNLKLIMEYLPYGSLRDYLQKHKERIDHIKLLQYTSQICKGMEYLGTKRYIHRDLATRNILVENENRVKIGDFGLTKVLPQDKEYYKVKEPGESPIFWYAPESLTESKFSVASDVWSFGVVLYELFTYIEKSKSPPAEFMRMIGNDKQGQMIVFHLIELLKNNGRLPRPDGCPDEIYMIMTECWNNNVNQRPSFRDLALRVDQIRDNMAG

Row | Structure (SMILES) | JAK2/JAK1 [1] | IC50 [2] | IC50 ([2]; 1 mM ATP, read-out: JAK1 IC50) | IL10-induced expression of Pim2 [3]
1 | N#CCC(C1CCN(c2cccc(Cl)n2)C1)n1cc(-c2ncnc3[nH]ccc23)cn1 (single isomer, unassigned) [Compound 3, 3-[1-(6-chloropyridin-2-yl)pyrrolidin-3-yl]-3-[4-(7H-pyrrolo[2,3-d]pyrimidin-4-yl)-1H-pyrazol-1-yl]propanenitrile] | >10 | < 0.01 µM | – | –
2 | C[C@@H](O)c1nc2cnc3ccsc3c2n1[C@H]1CC[C@H](CC#N)OC1 [Compound 1, ((2R,5S)-5-{2-[(1R)-1-hydroxyethyl]-1H-imidazo[4,5-d]thieno[3,2-b]pyridin-1-yl}tetrahydro-2H-pyran-2-yl)acetonitrile] | >10 | – | < 0.1 µM | –
3 | N#CCC(C1CCN(c2nc3cccnc3o2)C1)n1cc(-c2ncnc3[nH]ccc23)cn1 (stereo not shown) [Compound 4, 3-(1-[1,3]oxazolo[5,4-b]pyridin-2-ylpyrrolidin-3-yl)-3-[4-(7H-pyrrolo[2,3-d]pyrimidin-4-yl)-1H-pyrazol-1-yl]propanenitrile] | >10 | – | < 0.01 µM | –
4 | N#CCC(CN1CCN(C(=O)c2ccc(C#N)cc2F)CC1)n1cc(-c2ncnc3[nH]ccc23)cn1 (stereo not shown) [Compound 5, 4-[(4-{3-cyano-2-[4-(7H-pyrrolo[2,3-d]pyrimidin-4-yl)-1H-pyrazol-1-yl]propyl}piperazin-1-yl)carbonyl]-3-fluorobenzonitrile] | >10 | – | < 0.01 µM | –
5 | N#CCC(CN1CCN(C(=O)c2ccc(C#N)cc2F)CC1)n1ccc(-c2ncnc3[nH]ccc23)c1 (stereo not shown) [Compound 6, 4-[(4-{3-cyano-2-[3-(7H-pyrrolo[2,3-d]pyrimidin-4-yl)-1H-pyrrol-1-yl]propyl}piperazin-1-yl)carbonyl]-3-fluorobenzonitrile] | >10 | – | < 0.01 µM | –
6 | N#CCC1(n2cc(-c3ncnc4[nH]ccc34)cn2)CN(C2CCN(C(=O)c3ccnc(C(F)(F)F)c3F)CC2)C1 [Compound 7, {1-{1-[3-Fluoro-2-(trifluoromethyl)isonicotinoyl]piperidin-4-yl}-3-[4-(7H-pyrrolo[2,3-d]pyrimidin-4-yl)-1H-pyrazol-1-yl]azetidin-3-yl}acetonitrile] | >10 | – | < 0.01 µM | blocked
7 | N#CCC1(n2cc(-c3ncnc4[nH]ccc34)cn2)CN(C2CCN(C(=O)Nc3ccc(F)cc3C(F)(F)F)CC2)C1 [Compound 8, 4-{3-(cyanomethyl)-3-[4-(7H-pyrrolo[2,3-d]pyrimidin-4-yl)-1H-pyrazol-1-yl]azetidin-1-yl}-N-[4-fluoro-2-(trifluoromethyl)phenyl]piperidine-1-carboxamide] | >10 | – | < 0.01 µM | –
8 | N#CCC1(n2cc(-c3ncnc4[nH]ccc34)cn2)CN(C2CCN(C(=O)c3ccnc(C(F)(F)F)n3)CC2)C1 [Compound 9, [3-[4-(7H-pyrrolo[2,3-d]pyrimidin-4-yl)-1H-pyrazol-1-yl]-1-(1-{[2-(trifluoromethyl)pyrimidin-4-yl]carbonyl}piperidin-4-yl)azetidin-3-yl]acetonitrile] | >10 | – | < 0.01 µM | –
9 | N#CC[C@]1(n2cc(-c3ncnc4[nH]ccc34)cn2)C[C@H](N2CCN(C(=O)c3ccnc(C(F)(F)F)n3)CC2)C1 [Compound 10, [trans-1-[4-(7H-pyrrolo[2,3-d]pyrimidin-4-yl)-1H-pyrazol-1-yl]-3-(4-{[2-(trifluoromethyl)pyrimidin-4-yl]carbonyl}piperazin-1-yl)cyclobutyl]acetonitrile] | >10 | – | < 0.01 µM | –
10 | N#CC[C@]1(n2cc(-c3ncnc4[nH]ccc34)cn2)C[C@H](N2CCC(Oc3cc(CN4CC(O)C4)cc(C(F)(F)F)n3)CC2)C1 [Compound 11, {trans-3-(4-{[4-[(3-hydroxyazetidin-1-yl)methyl]-6-(trifluoromethyl)pyridin-2-yl]oxy}piperidin-1-yl)-1-[4-(7H-pyrrolo[2,3-d]pyrimidin-4-yl)-1H-pyrazol-1-yl]cyclobutyl}acetonitrile] | – | – | < 0.01 µM | –
11 | N#CC[C@]1(n2cc(-c3ncnc4[nH]ccc34)cn2)C[C@H](N2CCC(Oc3cc(CN4CCC[C@H]4CO)cc(C(F)(F)F)n3)CC2)C1 [Compound 12, {trans-3-(4-{[4-{[(2S)-2-(hydroxymethyl)pyrrolidin-1-yl]methyl}-6-(trifluoromethyl)pyridin-2-yl]oxy}piperidin-1-yl)-1-[4-(7H-pyrrolo[2,3-d]pyrimidin-4-yl)-1H-pyrazol-1-yl]cyclobutyl}acetonitrile] | >10 | – | < 0.01 µM | –
12 | N#CC[C@]1(n2cc(-c3ncnc4[nH]ccc34)cn2)C[C@H](N2CCC(Oc3cc(CN4CCC[C@@H]4CO)cc(C(F)(F)F)n3)CC2)C1 [Compound 13, {trans-3-(4-{[4-{[(2R)-2-(hydroxymethyl)pyrrolidin-1-yl]methyl}-6-(trifluoromethyl)pyridin-2-yl]oxy}piperidin-1-yl)-1-[4-(7H-pyrrolo[2,3-d]pyrimidin-4-yl)-1H-pyrazol-1-yl]cyclobutyl}acetonitrile] | >10 | – | < 0.01 µM | –
13 | N#CCC1(n2cc(-c3ncnc4[nH]ccc34)cn2)CN([C@H]2CC[C@@H](Oc3cc(CCO)nc(C(F)(F)F)n3)CC2)C1 [Compound 18, {1-(cis-4-{[6-(2-hydroxyethyl)-2-(trifluoromethyl)pyrimidin-4-yl]oxy}cyclohexyl)-3-[4-(7H-pyrrolo[2,3-d]pyrimidin-4-yl)-1H-pyrazol-1-yl]azetidin-3-yl}acetonitrile] | >10 | – | < 0.01 µM | –
14 | CCNCc1cc(O[C@H]2CC[C@@H](N3CC(CC#N)(n4cc(-c5ncnc6[nH]ccc56)cn4)C3)CC2)nc(C(F)(F)F)c1 [Compound 19, {1-(cis-4-{[4-[(ethylamino)methyl]-6-(trifluoromethyl)pyridin-2-yl]oxy}cyclohexyl)-3-[4-(7H-pyrrolo[2,3-d]pyrimidin-4-yl)-1H-pyrazol-1-yl]azetidin-3-yl}acetonitrile] | >10 | – | < 0.01 µM | –
15 | CC(C)(O)c1cc(O[C@H]2CC[C@@H](N3CC(CC#N)(n4cc(-c5ncnc6[nH]ccc56)cn4)C3)CC2)nc(C(F)(F)F)c1 [Compound 20, {1-(cis-4-{[4-(1-hydroxy-1-methylethyl)-6-(trifluoromethyl)pyridin-2-yl]oxy}cyclohexyl)-3-[4-(7H-pyrrolo[2,3-d]pyrimidin-4-yl)-1H-pyrazol-1-yl]azetidin-3-yl}acetonitrile] | >10 | – | < 0.01 µM | –
16 | N#CCC1(n2cc(-c3ncnc4[nH]ccc34)cn2)CN([C@H]2CC[C@@H](Oc3cc(CN4CC[C@@H](O)C4)cc(C(F)(F)F)n3)CC2)C1 [Compound 21, {1-(cis-4-{[4-{[(3R)-3-hydroxypyrrolidin-1-yl]methyl}-6-(trifluoromethyl)pyridin-2-yl]oxy}cyclohexyl)-3-[4-(7H-pyrrolo[2,3-d]pyrimidin-4-yl)-1H-pyrazol-1-yl]azetidin-3-yl}acetonitrile] | >10 | – | < 0.01 µM | –
17 | N#CCC1(n2cc(-c3ncnc4[nH]ccc34)cn2)CN([C@H]2CC[C@@H](Oc3cc(CN4CC[C@H](O)C4)cc(C(F)(F)F)n3)CC2)C1 [Compound 22, {1-(cis-4-{[4-{[(3S)-3-hydroxypyrrolidin-1-yl]methyl}-6-(trifluoromethyl)pyridin-2-yl]oxy}cyclohexyl)-3-[4-(7H-pyrrolo[2,3-d]pyrimidin-4-yl)-1H-pyrazol-1-yl]azetidin-3-yl}acetonitrile] | >10 | – | < 0.01 µM | –
18 | C[C@@H](CO)NCc1cc(OC2CCN([C@H]3C[C@](CC#N)(n4cc(-c5ncnc6[nH]ccc56)cn4)C3)CC2)nc(C(F)(F)F)c1 [Compound 23, {trans-3-(4-{[4-({[(1S)-2-hydroxy-1-methylethyl]amino}methyl)-6-(trifluoromethyl)pyridin-2-yl]oxy}piperidin-1-yl)-1-[4-(7H-pyrrolo[2,3-d]pyrimidin-4-yl)-1H-pyrazol-1-yl]cyclobutyl}acetonitrile] | >10 | – | < 0.01 µM | –
19 | C[C@@H](O)CNCc1cc(OC2CCN([C@H]3C[C@](CC#N)(n4cc(-c5ncnc6[nH]ccc56)cn4)C3)CC2)nc(C(F)(F)F)c1 [Compound 24, {trans-3-(4-{[4-({[(2R)-2-hydroxypropyl]amino}methyl)-6-(trifluoromethyl)pyridin-2-yl]oxy}piperidin-1-yl)-1-[4-(7H-pyrrolo[2,3-d]pyrimidin-4-yl)-1H-pyrazol-1-yl]cyclobutyl}acetonitrile] | >10 | – | < 0.01 µM | –
20 | C[C@H](O)CNCc1cc(OC2CCN([C@H]3C[C@](CC#N)(n4cc(-c5ncnc6[nH]ccc56)cn4)C3)CC2)nc(C(F)(F)F)c1 [Compound 25, {trans-3-(4-{[4-({[(2S)-2-hydroxypropyl]amino}methyl)-6-(trifluoromethyl)pyridin-2-yl]oxy}piperidin-1-yl)-1-[4-(7H-pyrrolo[2,3-d]pyrimidin-4-yl)-1H-pyrazol-1-yl]cyclobutyl}acetonitrile] | >10 | – | < 0.01 µM | –
21 | N#CC[C@]1(n2cc(-c3ncnc4[nH]ccc34)cn2)C[C@H](N2CCC(Oc3cc(CCO)cc(C(F)(F)F)n3)CC2)C1 [Compound 26, {trans-3-(4-{[4-(2-hydroxyethyl)-6-(trifluoromethyl)pyridin-2-yl]oxy}piperidin-1-yl)-1-[4-(7H-pyrrolo[2,3-d]pyrimidin-4-yl)-1H-pyrazol-1-yl]cyclobutyl}acetonitrile] | >10 | – | < 0.01 µM | –
22 | N#CC[C@H](C1CCCC1)n1cc(-c2ncnc3[nH]ccc23)cn1 [ruxolitinib, (3R)-3-cyclopentyl-3-[4-(7H-pyrrolo[2,3-d]pyrimidin-4-yl)-1H-pyrazol-1-yl]propanenitrile, reference compound] | – | – | – | blocked
